In patent US11814445B2, “Cyclic polypeptides for PCSK9 inhibition” (Ra Pharmaceuticals, Inc., priority 2018, dated 2023):
Numbered stars: 1 amine (or outer) side, 2 acyl side, 3 side chain; on linkers, the order of the positions; unused ones are H or OH. Bridge positions count the residues as written; N and C are the ends. Square brackets hold non-standard residues; d marks the D form. Peptide text beside a SMILES is read from it. ξ: configuration not given here. Trp(5-F) = N[C@@H](Cc1c[nH]c2ccc(F)cc12)C(=O)O; X8 = O=C(CCCCCSCc1cccc(CSCCN[*:1])c1)[*:2]; X9 = O=C(CCCCCSCc1ccc(CSCCN[*:1])cc1)[*:2]; Phe(4-CN) = N#Cc1ccc(C[C@H](N)C(=O)O)cc1; Phe(4-Cl) = N[C@@H](Cc1ccc(Cl)cc1)C(=O)O; X1 = O=C(CCSCc1cccc(CSCCN[*:1])c1)[*:2]; 1Nal = N[C@@H](Cc1cccc2ccccc12)C(=O)O; 2Nal = N[C@@H](Cc1ccc2ccccc2c1)C(=O)O; Tiq1c(1S) = O=C(O)[C@H]1NCCc2ccccc21; mXylylene = c1cc(C[*:1])cc(C[*:2])c1; NMeF = CN[C@@H](Cc1ccccc1)C(=O)O; Tic = O=C(O)[C@@H]1Cc2ccccc2CN1; Tle = CC(C)(C)[C@H](N)C(=O)O; Pip = O=C(O)[C@@H]1CCCCN1; Nva = CCC[C@H](N)C(=O)O; Aib = CC(C)(N)C(=O)O; ξP = O=C(O)C1CCCN1; Mpa = O=C(O)CCS

target: human PCSK9 / human LDLR EGFa domain (Homo sapiens, UniProt Q8NBP7); test: TR-FRET assay of inhibition of the PCSK9-LDLR protein-protein interaction; format: binding; conditions: 20 nM human PCSK9, 20 nM human LDLR EGFa domain, 2 hours room temperature
Protocol: A time-resolved fluorescence resonance energy (TR-FRET) assay was used to measure inhibition of the PCSK9-LDLR protein-protein interaction. Briefly, 20 nM avitag-biotinylated human PCSK9 was incubated with 20 nM his-tagged human LDLR EGFa domain in the presence of 5 nM LANCE Ulight Streptavidin (Perkin Elmer) and 5 nM europium-Anti-6×His (Perkin Elmer) for 2 hours covered at room temperature in buffer containing 50 mM HEPES, 150 mM NaCl, 5 mM CaCl2), 0.01% BSA and 0.01% Surfactant P20. Compounds were tested in dose-response and concentrations giving half-maximal inhibition calculated using a 4-parameter fit equation.

human PCSK9 / human LDLR EGFa domain, sequence (Q8NBP7 153-692): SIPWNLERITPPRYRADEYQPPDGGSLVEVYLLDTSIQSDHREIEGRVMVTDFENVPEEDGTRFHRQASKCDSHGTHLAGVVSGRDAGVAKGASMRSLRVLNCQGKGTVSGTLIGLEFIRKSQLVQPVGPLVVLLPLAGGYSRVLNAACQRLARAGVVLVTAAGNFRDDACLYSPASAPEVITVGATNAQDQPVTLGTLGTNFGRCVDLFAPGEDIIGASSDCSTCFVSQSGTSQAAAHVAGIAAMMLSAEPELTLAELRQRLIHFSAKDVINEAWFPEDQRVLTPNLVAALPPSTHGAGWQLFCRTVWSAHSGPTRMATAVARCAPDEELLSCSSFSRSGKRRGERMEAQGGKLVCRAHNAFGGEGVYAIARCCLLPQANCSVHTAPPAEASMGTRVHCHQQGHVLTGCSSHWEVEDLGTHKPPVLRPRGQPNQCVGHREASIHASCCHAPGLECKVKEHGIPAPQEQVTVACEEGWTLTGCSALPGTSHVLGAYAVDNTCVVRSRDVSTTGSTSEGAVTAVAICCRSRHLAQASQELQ

| SMILES | IC50 |
| --- | --- |
| C[C@@H]1NC(=O)[C@@H]2CCCN2C(=O)[C@H](Cc2c[nH]c3ccc(F)cc23)NC(=O)[C@H](Cc2c[nH]c3ccc(F)cc23)NC(=O)[C@@H](C)NC(=O)[C@@H]2CCCN2C(=O)CCSCc2cccc(c2)CSCCNC(=O)[C@@H]2CCCN2C(=O)[C@H](Cc2cccc3ccccc23)NC1=O [Compound 054] (cyclo([1Nal]P[X1]P[dA][Trp(5-F)][Trp(5-F)]PA)) | 100 to 1000 nM |
| C[C@@H]1NC(=O)[C@@H]2CCCN2C(=O)[C@H](Cc2c[nH]c3ccc(F)cc23)NC(=O)[C@H](Cc2cccc3ccccc23)NC(=O)[C@@H](C)NC(=O)[C@@H]2CCCN2C(=O)CCSCc2cccc(c2)CSCCNC(=O)[C@@H]2CCCN2C(=O)[C@H](Cc2cccc3ccccc23)NC1=O [Compound 055] (cyclo([1Nal]P[X1]P[dA][1Nal][Trp(5-F)]PA)) | 1000 to 12100 nM |
| C[C@@H]1NC(=O)[C@@H]2CCCN2C(=O)[C@H](Cc2c[nH]c3ccc(F)cc23)NC(=O)[C@H](Cc2c[nH]c3ccc(F)cc23)NC(=O)[C@@H](C)NC(=O)[C@@H]2CCCN2C(=O)CCSCc2cccc(c2)CSCCNC(=O)[C@@H]2CCCN2C(=O)[C@H](Cc2ccccc2)NC1=O [Compound 057] (cyclo(AFP[X1]P[dA][Trp(5-F)][Trp(5-F)]P)) | 100 to 1000 nM |
| C[C@@H]1NC(=O)CCSCc2cccc(c2)CSCCNC(=O)[C@@H]2CCCN2C(=O)[C@H](Cc2ccc(O)cc2)NC(=O)[C@H](C)NC(=O)[C@@H]2CCCN2C(=O)[C@H](Cc2c[nH]c3ccc(F)cc23)NC(=O)[C@H](Cc2c[nH]c3ccc(F)cc23)NC(=O)[C@@H](C)NC1=O [Compound 058] (cyclo(AYP[X1]A[dA][Trp(5-F)][Trp(5-F)]P)) | 21000 to 50000 nM |
| C[C@@H]1NC(=O)CCSCc2cccc(c2)CSCCNC(=O)[C@@H]2CCCN2C(=O)[C@H](Cc2cccc3ccccc23)NC(=O)[C@H](C)NC(=O)[C@@H]2CCCN2C(=O)[C@H](Cc2c[nH]c3ccc(F)cc23)NC(=O)[C@H](Cc2c[nH]c3ccc(F)cc23)NC(=O)[C@@H](C)NC1=O [Compound 065] (cyclo([1Nal]P[X1]A[dA][Trp(5-F)][Trp(5-F)]PA)) | 21000 to 50000 nM |
| C[C@@H]1NC(=O)CCSCc2cccc(c2)CSCCNC(=O)[C@@H]2CCCN2C(=O)[C@H](Cc2ccccc2)N(C)C(=O)[C@H](C)NC(=O)[C@@H]2CCCN2C(=O)[C@H](Cc2c[nH]c3ccc(F)cc23)NC(=O)[C@H](Cc2cccc3ccccc23)NC(=O)[C@@H](C)NC1=O [Compound 067] (cyclo([1Nal][Trp(5-F)]PA[NMeF]P[X1]A[dA])) | 1000 to 12100 nM |
| C[C@@H]1NC(=O)CCSCc2cccc(c2)CSCCNC(=O)[C@@H]2CCCN2C(=O)[C@H](Cc2ccc3ccccc3c2)NC(=O)[C@H](C)NC(=O)[C@@H]2CCCN2C(=O)[C@H](Cc2c[nH]c3ccc(F)cc23)NC(=O)[C@H](Cc2cccc3ccccc23)NC(=O)[C@@H](C)NC1=O [Compound 079] (cyclo([1Nal][Trp(5-F)]PA[2Nal]P[X1]A[dA])) | 100 to 1000 nM |
| C[C@@H]1NC(=O)CCSCc2cccc(c2)CSCCNC(=O)[C@@H]2CCCN2C(=O)[C@H](Cc2cccc3ccccc23)NC(=O)[C@H](C)NC(=O)[C@@H]2CCCN2C(=O)[C@H](Cc2c[nH]c3ccc(F)cc23)NC(=O)[C@H](Cc2cccc3ccccc23)NC(=O)[C@@H](C)NC1=O [Compound 080] (cyclo([1Nal]P[X1]A[dA][1Nal][Trp(5-F)]PA)) | 1000 to 12100 nM |
| C[C@@H]1NC(=O)CCSCc2cccc(c2)CSC[C@@H](C(N)=O)NC(=O)[C@@H]2CCCN2C(=O)[C@H](Cc2ccc(C#N)cc2)NC(=O)[C@H](C)NC(=O)[C@@H]2CCCN2C(=O)[C@H](Cc2c[nH]c3ccc(F)cc23)NC(=O)[C@H](Cc2c[nH]c3ccc(F)cc23)NC(=O)[C@@H](C)NC1=O [Compound 081] ([Mpa]A[dA][Trp(5-F)][Trp(5-F)]PA[Phe(4-CN)]PC-NH2; linker 1-10 via mXylylene) | 1000 to 12100 nM |
| C[C@@H]1NC(=O)CCSCc2cccc(c2)CSC[C@@H](C(N)=O)NC(=O)[C@@H]2CCCN2C(=O)[C@H](Cc2ccc(Cl)cc2)NC(=O)[C@H](C)NC(=O)[C@@H]2CCCN2C(=O)[C@H](Cc2c[nH]c3ccc(F)cc23)NC(=O)[C@H](Cc2c[nH]c3ccc(F)cc23)NC(=O)[C@@H](C)NC1=O [Compound 083] ([Mpa]A[dA][Trp(5-F)][Trp(5-F)]PA[Phe(4-Cl)]PC-NH2; linker 1-10 via mXylylene) | 21000 to 50000 nM |
| C[C@@H]1NC(=O)CCSCc2cccc(c2)CSCCNC(=O)[C@@H]2CCCN2C(=O)[C@H](Cc2ccccc2)N(C)C(=O)[C@H](C)NC(=O)[C@@H]2CCCCN2C(=O)[C@H](Cc2c[nH]c3ccc(F)cc23)NC(=O)[C@H](Cc2c[nH]c3ccc(F)cc23)NC(=O)[C@@H](C)NC1=O [Compound 088] (cyclo(A[NMeF]P[X1]A[dA][Trp(5-F)][Trp(5-F)][Pip])) | 21000 to 50000 nM |
| C[C@@H]1NC(=O)CCSCc2cccc(c2)CSCCNC(=O)[C@@H]2CCCN2C(=O)[C@H](Cc2ccc(O)cc2)NC(=O)[C@H](C)NC(=O)[C@@H]2Cc3ccccc3CN2C(=O)[C@H](Cc2c[nH]c3ccc(F)cc23)NC(=O)[C@H](Cc2c[nH]c3ccc(F)cc23)NC(=O)[C@@H](C)NC1=O [Compound 091] (cyclo(AYP[X1]A[dA][Trp(5-F)][Trp(5-F)][Tic])) | 100 to 1000 nM |
| C[C@@H]1NC(=O)CCSCc2cccc(c2)CSCCNC(=O)[C@@H]2CCCN2C(=O)[C@H](Cc2ccc(O)cc2)NC(=O)[C@H](C)NC(=O)[C@@H]2c3ccccc3CCN2C(=O)[C@H](Cc2c[nH]c3ccc(F)cc23)NC(=O)[C@H](Cc2c[nH]c3ccccc23)NC(=O)[C@@H](C)NC1=O [Compound 092] (cyclo(AYP[X1]A[dA]W[Trp(5-F)][Tiq1c(1S)])) | 21000 to 50000 nM |
| CCC[C@@H]1NC(=O)CCSCc2cccc(c2)CSCCNC(=O)[C@@H]2CCCN2C(=O)[C@H](Cc2ccc(O)cc2)NC(=O)[C@H](C)NC(=O)[C@@H]2CCCN2C(=O)[C@H](Cc2c[nH]c3ccc(F)cc23)NC(=O)[C@H](Cc2c[nH]c3ccc(F)cc23)NC(=O)[C@@H](C)NC1=O [Compound 093] (cyclo(AYP[X1][Nva][dA][Trp(5-F)][Trp(5-F)]P)) | 1000 to 12100 nM |
| C[C@@H]1NC(=O)[C@@H]2CCCN2C(=O)[C@H](Cc2c[nH]c3ccc(F)cc23)NC(=O)[C@H](Cc2c[nH]c3ccc(F)cc23)NC(=O)[C@@H](C)NC(=O)C(C)(C)NC(=O)CCSCc2cccc(c2)CSCCNC(=O)[C@@H]2CCCN2C(=O)[C@H](Cc2ccc(O)cc2)NC1=O [Compound 094] (cyclo(AYP[X1][Aib][dA][Trp(5-F)][Trp(5-F)]P)) | 100 to 1000 nM |
| C[C@@H]1NC(=O)[C@@H]2CCCN2C(=O)[C@H](Cc2c[nH]c3ccc(F)cc23)NC(=O)[C@H](Cc2c[nH]c3ccc(F)cc23)NC(=O)[C@@H](C)NC(=O)[C@H](C(C)(C)C)NC(=O)CCSCc2cccc(c2)CSCCNC(=O)[C@@H]2CCCN2C(=O)[C@H](Cc2ccc(O)cc2)NC1=O [Compound 095] (cyclo(AYP[X1][Tle][dA][Trp(5-F)][Trp(5-F)]P)) | 100 to 1000 nM |
| C[C@@H]1NC(=O)[C@@H]2CCCN2C(=O)[C@H](Cc2c[nH]c3ccc(F)cc23)NC(=O)[C@H](Cc2c[nH]c3ccc(F)cc23)NC(=O)CNC(=O)CCCCCSCc2cccc(c2)CSCCNC(=O)C2CCCN2C(=O)[C@H](Cc2ccc(O)cc2)NC1=O (stereo partly drawn) [Compound 098] (cyclo(AY[ξP][X8]G[Trp(5-F)][Trp(5-F)]P)) | 100 to 1000 nM |
| C[C@@H]1NC(=O)[C@@H]2CCCN2C(=O)[C@H](Cc2c[nH]c3ccc(F)cc23)NC(=O)[C@H](Cc2c[nH]c3ccc(F)cc23)NC(=O)CNC(=O)CCCCCSCc2ccc(cc2)CSCCNC(=O)C2CCCN2C(=O)[C@H](Cc2ccc(O)cc2)NC1=O (stereo partly drawn) [Compound 099] (cyclo(AY[ξP][X9]G[Trp(5-F)][Trp(5-F)]P)) | 1000 to 12100 nM |
